According to patent US10323041B2, “Bicyclic derivatives, a process for their preparation and pharmaceutical compositions containing them” (LES LABORATOIRES SERVIER, priority 2015, dated 2019):

molecular target: Mcl-1 protein (Homo sapiens, UniProt Q07820); test: Inhibition of Mcl-1 by the fluorescence polarisation technique; format: binding; settings: @ 10 μM test compound; partial inhibitors
Procedure: The relative binding potency of each compound was determined via fluorescence Polarisation (FP). The method utilised a Fluorescein labelled ligand Fluorescein-βAla-Ahx-[A-REIGAQLRRMADDLNAQY (SEQ ID NO: 1)]-OH; mw 2,765) which binds to the Mcl-1 protein (such that corresponds to the UniProtKB® primary accession number: Q07820) leading to an increased anisotropy measured in milli-polarisation (mP) units using a reader. The addition of a compound which binds competitively to the same site as the ligand will result in a greater proportion of unbound ligand in the system indicated by a decrease in mP units.
Method 1: An 11 point serial dilution of each compound was prepared in DMSO and 2 μl transferred into flat bottomed, low binding, 384-well plate (final DMSO concentration 5%). 38 μl of buffer (10 mM 4-(2-hydroxyethyl)-1-piperazineethanesulfonic acid [HEPES], 150 mM NaCl, 0.05% Tween 20, pH 7.4), containing the Fluorescein labelled ligand (final concentration 1 nM) and Mcl-1 protein (final concentration 5 nM) was then added.
(§1) Assay plates were incubated ˜2 hours at room temperature before FP was measured on a […] Synergy2 reader (Ex. 528 nm, Em. 640 nm, Cut off 510 nm) and mP units calculated. The binding of increasing doses of test compound was expressed as a percentage reduction in mP compared to a window established between ‘5% DMSO only’ and ‘100% inhibition’ controls. 11-point dose response curves were plotted with XL-Fit software using a 4-Parameter Logistic Model (Sigmoidal Dose-Response Model) and the inhibitory concentrations that gave a 50% reduction in mP (IC50) were determined. Results obtained using Method 1 are presented in Table 1 below; IC50 of Mcl-1 inhibition obtained using Method 1 are not underlined.
Method 2: An 11 point serial dilution of each compound was prepared in DMSO and 2 μl transferred into flat bottomed, low binding, 384-well plate (final DMSO concentration 5%). 38 μl of buffer (20 mM Na2HPO4, 1 mM EDTA, 50 mM NaCl, pH 7.4), containing the Fluorescein labelled ligand (final concentration 10 nM) and Mcl-1 protein (final concentration 10 nM) was then added.
as §1, with “inhibition’ controls (50 μM unlabelled ligand).” for “inhibition’ controls.”, “Method 2” for “Method 1”, “are” for “are not”

Chain of Mcl-1 protein (Q07820 whole entry): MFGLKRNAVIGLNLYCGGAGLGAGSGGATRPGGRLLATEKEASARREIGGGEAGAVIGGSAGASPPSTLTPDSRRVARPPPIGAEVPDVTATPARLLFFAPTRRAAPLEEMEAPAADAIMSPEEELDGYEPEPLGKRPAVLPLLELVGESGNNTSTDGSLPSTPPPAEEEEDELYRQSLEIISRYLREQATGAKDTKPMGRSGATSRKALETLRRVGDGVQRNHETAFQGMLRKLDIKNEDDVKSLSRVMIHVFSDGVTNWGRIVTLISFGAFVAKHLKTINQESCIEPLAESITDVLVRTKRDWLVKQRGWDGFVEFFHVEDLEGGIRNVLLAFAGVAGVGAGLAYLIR

percentage fluorescence polarization inhibition [% @ 10 μM]	Compound
52.8	COc1ccccc1CC(Oc1cccc2oc(-c3ccc(F)cc3)c(-c3ccc(OCCN4CCN(C)CC4)c(Cl)c3C)c12)C(=O)O [Example 61, (2R)-2-{[(3Ra)-3-{3-chloro-2-methyl-4-[2-(4-methylpiperazin-1-yl)ethoxy]phenyl}-2-(4-fluorophenyl)-1-benzofuran-4-yl]oxy}-3-(2-methoxyphenyl)propanoic acid]
55.35	COc1ccccc1C[C@@H](Oc1cccc2cc(-c3ccc(F)cc3)n(-c3ccc(OCCN4CCN(C)CC4)c(Cl)c3C)c12)C(=O)O [Example 55]

same assay, conditions: @ 50 μM test compound; partial inhibitors

percentage fluorescence polarization inhibition [% @ 50 μM]	Compound
64.8	CCc1c(-c2cccc(Cl)c2C)c2c(NC(Cc3ccccc3)C(=O)O)ncnc2n1C [Example 20, N-[(5Ra)-5-(3-chloro-2-methylphenyl)-6-ethyl-7-methyl-7H-pyrrolo[2,3-d]pyrimidin-4-yl]-D-phenylalanine]

same assay, conditions: Method 1 (not underlined) or Method 2 (underlined); underlining not visible; first value where cell prints two; read-out: IC50 (M) Mcl-1 FP

IC50 [M]	Compound
5.9e-06	Cc1c(Cl)cccc1-c1c2n(c3ncnc(NC(Cc4ccccc4)C(=O)O)c13)CCCC2 (single isomer, unassigned) [Example 48, N-[(5Sa)-5-(3-chloro-2-methylphenyl)-6,7,8,9-tetrahydropyrimido[5,4-b]indolizin-4-yl]-D-phenylalanine]
1.2e-06	COc1ccccc1-c1nccc(COc2ccccc2CC(Oc2cccc3c2c(-c2ccc(OCCN4CCN(C)CC4)c(Cl)c2C)c(-c2ccc(F)cc2)n3C)C(=O)O)n1 (single isomer, unassigned) [Example 68]
1.8e-05	Cn1cc(-c2cccc3ccccc23)c2c(N[C@H](Cc3ccccc3)C(=O)O)ncnc21 [Example 10, N-[7-methyl-5-(naphthalen-1-yl)-7H-pyrrolo[2,3-d]pyrimidin-4-yl]-D-phenylalanine]
1.1e-05	Cc1c(Cl)cccc1-c1c2n(c3ncnc(NC(Cc4ccccc4)C(=O)O)c13)CCCC2 (single isomer, unassigned) [Example 47, N-[(5Ra)-5-(3-chloro-2-methylphenyl)-6,7,8,9-tetrahydropyrimido[5,4-b]indolizin-4-yl]-D-phenylalanine]
5.3e-07	CCc1c(-c2cccc(Cl)c2C)c2c(NC(Cc3ccccc3)C(=O)O)ncnc2n1Cc1ccccc1 (single isomer, unassigned) [Example 37, N-[7-benzyl-(5Sa)-5-(3-chloro-2-methylphenyl)-6-ethyl-7H-pyrrolo[2,3-d]pyrimidin-4-yl]-D-phenylalanine]
3.5e-06	CCc1c(-c2cccc(Cl)c2C)c2c(NC(Cc3ccccc3)C(=O)O)ncnc2n1Cc1cccc2ccccc12 (single isomer, unassigned) [Example 32, N-[(5Ra)-5-(3-chloro-2-methylphenyl)-6-ethyl-7-(naphthalen-1-ylmethyl)-7H-pyrrolo[2,3-d]pyrimidin-4-yl]-D-phenylalanine]
1.3e-05	C=CCCn1c(Br)c(-c2cccc(Cl)c2C)c2c(NC(Cc3ccccc3)C(=O)O)ncnc21 (single isomer, unassigned) [Example 41, N-[6-bromo-7-(but-3-en-1-yl)-(5Ra)-5-(3-chloro-2-methylphenyl)-7H-pyrrolo[2,3-d]pyrimidin-4-yl]-D-phenylalanine]
1e-06	Cc1c(-c2c(-c3ccc(F)cc3)oc3cccc(OC(Cc4ccccc4OCC(F)(F)F)C(=O)O)c23)ccc(OCCN2CCN(C)CC2)c1Cl [Example 65, (2R)-2-{[(3Sa)-3-{3-chloro-2-methyl-4-[2-(4-methylpiperazin-1-yl)ethoxy]phenyl}-2-(4-fluorophenyl)-1-benzofuran-4-yl]oxy}-3-[2-(2,2,2-trifluoroethoxy)phenyl]propanoic acid]
6.6e-07	CCc1c(-c2cccc3ccccc23)c2c(N[C@H](Cc3ccccc3)C(=O)O)ncnc2n1Cc1ccccc1 (single isomer, unassigned) [Example 13, N-[7-benzyl-6-ethyl-5-(naphthalen-1-yl)-7H-pyrrolo[2,3-d]pyrimidin-4-yl]-D-phenylalanine]
3.3e-06	CCc1c(-c2cccc3ccccc23)c2c(N[C@H](Cc3ccccc3)C(=O)O)ncnc2n1CCCc1ccccc1 (single isomer, unassigned) [Example 19, N-[6-ethyl-5-(naphthalen-1-yl)-7-(3-phenylpropyl)-7H-pyrrolo[2,3-d]pyrimidin-4-yl]-D-phenylalanine]
4.7e-08	COc1ccccc1CC(Oc1cccc2cc(-c3ccc(F)cc3)n(-c3ccc(OCCN4CCN(C)CC4)c(Cl)c3C)c12)C(=O)O (stereo not shown) [Example 56]
8.9e-09	Cc1c(-c2c(-c3ccc(F)cc3)oc3ncnc(O[C@H](Cc4ccccc4OCc4ccnn4C(C)(C)C)C(=O)O)c23)ccc(OCCN(C)C)c1Cl [Example 6, (2R)-3-{2-[(1-tert-butyl-1H-pyrazol-5-yl)methoxy]phenyl}-2-{[5-{3-chloro-4-[2-(dimethylamino)ethoxy]-2-methylphenyl}-6-(4-fluorophenyl)furo[2,3-d]pyrimidin-4-yl]oxy}propanoic acid]
3.4e-05	O=C(O)[C@@H](Cc1ccccc1)Nc1ncnc2[nH]cc(-c3cccc4ccccc34)c12 [Example 11, N-[5-(naphthalen-1-yl)-7H-pyrrolo[2,3-d]pyrimidin-4-yl]-D-phenylalanine]
8.2e-07	COc1ccccc1CC(Oc1cccc2oc(-c3ccc(F)cc3)c(-c3ccc(OCCN4CCN(C)CC4)c(Cl)c3C)c12)C(=O)O [Example 62, (2R)-2-{[(3Sa)-3-{3-chloro-2-methyl-4-[2-(4-methylpiperazin-1-yl)ethoxy]phenyl}-2-(4-fluorophenyl)-1-benzofuran-4-yl]oxy}-3-(2-methoxyphenyl)propanoic acid]
6.5e-06	CCc1c(-c2cccc(Cl)c2C)c2c(NC(Cc3ccccc3)C(=O)O)ncnc2n1Cc1ccccc1 (single isomer, unassigned) [Example 36, N-[7-benzyl-(5Ra)-5-(3-chloro-2-methylphenyl)-6-ethyl-7H-pyrrolo[2,3-d]pyrimidin-4-yl]-D-phenylalanine]
3.3e-07	CC#CCn1c(CC)c(-c2cccc(Cl)c2C)c2c(NC(Cc3ccccc3)C(=O)O)ncnc21 (single isomer, unassigned) [Example 27, N-[7-(but-2-yn-1-yl)-(5Sa)-5-(3-chloro-2-methylphenyl)-6-ethyl-7H-pyrrolo[2,3-d]pyrimidin-4-yl]-D-phenylalanine]
1.2e-05	CCc1c(-c2cccc3ccccc23)c2c(N[C@H](Cc3ccccc3)C(=O)O)ncnc2n1CCOc1cccc2ccccc12 (single isomer, unassigned) [Example 14, N-{6-ethyl-5-(naphthalen-1-yl)-7-[2-(naphthalen-1-yloxy)ethyl]-7H-pyrrolo[2,3-d]pyrimidin-4-yl}-D-phenylalanine]
8.7e-06	CCc1c(-c2cccc(Cl)c2C)c2c(NC(Cc3ccccc3)C(=O)O)ncnc2n1C [Example 21, N-[(5Sa)-5-(3-chloro-2-methylphenyl)-6-ethyl-7-methyl-7H-pyrrolo[2,3-d]pyrimidin-4-yl]-D-phenylalanine]
3.8e-06	CCc1c(-c2cccc3ccccc23)c2c(N[C@H](Cc3ccccc3)C(=O)O)ncnc2n1CCc1ccccc1 (single isomer, unassigned) [Example 17, N-[6-ethyl-5-(naphthalen-1-yl)-7-(2-phenylethyl)-7H-pyrrolo[2,3-d]pyrimidin-4-yl]-D-phenylalanine]
1.6e-06	COc1ccccc1-c1nccc(COc2ccccc2CC(Oc2cccc3sc(-c4ccc(F)cc4)c(-c4ccc(OCCN5CCN(C)CC5)c(Cl)c4C)c23)C(=O)O)n1 (single isomer, unassigned) [Example 52]
1.8e-06	Cc1c(-c2cn(Cc3ccccc3)c3ncnc(O[C@H](Cc4ccccc4)C(=O)O)c23)ccc(OCCN2CCN(C)CC2)c1Cl [Example 45, (2R)-2-[(7-benzyl-5-{3-chloro-2-methyl-4-[2-(4-methylpiperazin-1-yl)ethoxy]phenyl}-7H-pyrrolo[2,3-d]pyrimidin-4-yl)oxy]-3-phenylpropanoic acid]
9.1e-06	C=CCn1c(CC)c(-c2cccc(Cl)c2C)c2c(NC(Cc3ccccc3)C(=O)O)ncnc21 (single isomer, unassigned) [Example 25, N-[(5Sa)-5-(3-chloro-2-methylphenyl)-6-ethyl-7-(prop-2-en-1-yl)-7H-pyrrolo[2,3-d]pyrimidin-4-yl]-D-phenylalanine]
